Reference: patent US10231957B2, “Histone demethylase inhibitors” (CELGENE QUANTICEL RESEARCH, INC., priority 2014, dated 2019)
pIC50: −log10 of the molar value.

System: KYSE-150 esophageal carcinoma cell line
Assay: In vitro cell-based assay: cellular proliferation via BrdU incorporation
Conditions: Homo sapiens; KYSE-150 cells, BrdU incorporation after 168 hr compound incubation
Method: Cell lines tested include the JMJD2C gene amplified cell line KYSE-150. This is a quantitative ELISA assay measuring DNA incorporation of BrdU during S-phase as a direct readout of cellular proliferation.
Assay Principle: This is a colorimetric immunoassay for the quantification of cell proliferation. Cells treated for 168 hours with test compounds are assayed for their ability to go through S-phase as a measure of their proliferative potential.
Assay Method: The human KYSE-150 (SMAD4 mut, TP53 mut) esophageal carcinoma cell line was seeded at 2,000 cells/well on a 96-well tissue culture treated plate. After an overnight incubation, cells were treated with compound in an […] dilution series with final concentrations ranging from 100 μM to 2 nM. Cells were then incubated in the presence of compound for 168 hr. After compound incubation the cells were assayed using a BrdU Cell Proliferation ELISA (Roche). The cells were first incubated with BrdU labeling reagent for 2 hr. After 2 hr, the BrdU incorporated cells were fixed and denatured, probed with an anti-BrdU-Peroxidase antibody for 1.5 hr and washed. Finally, a tetramethylbenzidine peroxidase substrate was added to each well for 15 min followed by a H2SO4 stop solution. The plate was read at 450 nm, and the raw optical density data was transferred into XLFit (IDBS) for IC50 calculation using the formula: fit=(D+((Vmax*(x^n))/((x^n)+(Km^n))))

pIC50	Compound
< 5.00	COC(=O)c1ccnc2cc(-c3c4cc(Cl)ccc4nn3CCN3CCCC3)[nH]c12 [Example 10d, Methyl 2-{5-chloro-2-[2-(pyrrolidin-1-yl)ethyl]-2H-indazol-3-yl}-1H-pyrrolo[3,2-b]pyridine-7-carboxylate]
≥ 7.00	CN(c1ccccc1)c1ccc2c(-c3cc4nccc(C(=O)O)c4[nH]3)n(C)nc2c1 [Example 11, 2-{2-Methyl-6-[methyl(phenyl)amino]-2H-indazol-3-yl}-1-H-pyrrolo[3,2-b]pyridine-7-carboxylic Acid]
< 5.00	Cn1nc(-c2cc3nccc(C(=O)O)c3[nH]2)c2ccc(F)cc21 [Example 16, 2-(6-Fluoro-1-methyl-1H-indazol-3-yl)-1H-pyrrolo[3,2-b]pyridine-7-carboxylic Acid]
